Assay results: ChEMBL document CHEMBL1140822, “Prodrug thiamine analogs as inhibitors of the enzyme transketolase” (Bioorg Med Chem Lett, 2008)
The source made the active and inactive calls. The calls are words filed in the database; no cut-off is given here.

Key:
Transketolase = biological target: T1, Transketolase (Homo sapiens, UniProt P29401); experiment: Inhibition of transketolase in human HCT116 cells; format: cell-based, HCT-116
T1 sequence (P29401 whole entry): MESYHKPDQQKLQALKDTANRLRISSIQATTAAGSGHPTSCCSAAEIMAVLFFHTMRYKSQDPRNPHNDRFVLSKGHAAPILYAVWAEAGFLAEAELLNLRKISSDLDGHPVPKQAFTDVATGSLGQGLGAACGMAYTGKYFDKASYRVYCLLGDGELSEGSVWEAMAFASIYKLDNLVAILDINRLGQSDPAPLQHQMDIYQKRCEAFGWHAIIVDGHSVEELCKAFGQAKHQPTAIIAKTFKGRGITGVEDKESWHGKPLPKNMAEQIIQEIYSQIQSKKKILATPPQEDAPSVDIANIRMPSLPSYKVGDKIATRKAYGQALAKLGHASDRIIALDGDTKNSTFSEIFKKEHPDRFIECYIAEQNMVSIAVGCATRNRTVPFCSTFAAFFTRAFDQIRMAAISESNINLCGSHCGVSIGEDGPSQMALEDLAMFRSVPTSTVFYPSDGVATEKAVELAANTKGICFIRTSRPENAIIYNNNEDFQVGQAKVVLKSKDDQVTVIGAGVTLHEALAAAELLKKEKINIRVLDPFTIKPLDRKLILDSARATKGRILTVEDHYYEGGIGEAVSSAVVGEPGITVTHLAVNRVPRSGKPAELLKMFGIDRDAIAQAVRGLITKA

[1] = Cmax in rat at 3 mg/kg, iv; format: ADME, organism-based; parameters: dose 3 mg/kg, route intravenous; details: in vivo
[2] = AUC in rat at 3 mg/kg, iv; format: ADME, organism-based; parameters: dose 3 mg/kg, route intravenous; details: plasma
[3] = Clearance in rat at 3 mg/kg, iv; format: ADME, organism-based; parameters: dose 3 mg/kg, route intravenous; details: in vivo
[4] = Mean residence time in rat at 3 mg/kg, iv; format: ADME, organism-based; parameters: dose 3 mg/kg, route intravenous; details: in vivo
[5] = Volume of distribution at steady state in rat at 3 mg/kg, iv; format: ADME, organism-based; parameters: dose 3 mg/kg, route intravenous; details: in vivo, read-out: Vdss
Mus musculus = experiment: Inhibition of transketolase in BALB/c mouse blood at 100 mg/kg, ip after 72 hrs; format: functional, organism-based; parameters: dose 100 mg/kg

Row | Structure (SMILES) | EC50 (Transketolase) [µM] | also measured
1 | Cc1ccc(C[n+]2csc(CCO)c2)c(N)n1 | 9.54 | –
2 | Cc1ccc(C[n+]2csc(CCO)c2C)c(N)n1.[Cl-] | 0.018 | Cmax [1]: 6610 ng/mL; AUC [2]: 1250 ng·h/mL; clearance [3]: 41.3 mL/min/kg; MRT [4]: 0.72 h; Vd [5]: 1.98 L/kg
3 | CC(=O)OCC/C(SC(C)=O)=C(\C)N(C=O)Cc1ccc(C)nc1N | 0.008 | –
4 | C/C(=C(\CCO)SS/C(CCO)=C(/C)N(C=O)Cc1ccc(Cl)nc1N)N(C=O)Cc1ccc(Cl)nc1N | 0.008 | –
5 | C/C(=C(\CCO)SSCCC(=O)O)N(C=O)Cc1ccc(C)nc1N | 0.052 | –
6 | C/C(=C(\CCO)SSCCO)N(C=O)Cc1ccc(C)nc1N | 0.013 | –
7 | C/C(=C1\CCOC(=O)S1)N(C=O)Cc1ccc(C)nc1N | 0.015 | –
8 | C/C(=C(\CCO)SS/C(CCO)=C(/C)N(C=O)Cc1cccnc1N)N(C=O)Cc1cccnc1N | 0.479 | –
9 | CCCCS/C(CCO)=C(/C)N(C=O)Cc1ccc(C)nc1N | 6 | –
10 | C/C(=C(\CCO)SCOC(=O)C(C)(C)C)N(C=O)Cc1ccc(C)nc1N | 0.116 | Cmax [1]: 3020 ng/mL; AUC [2]: 79200 ng·h/mL; clearance [3]: 0.63 mL/min/kg; MRT [4]: 48.3 h; Vd [5]: 1.83 L/kg
11 | C/C(=C(\CCO)SS/C(CCO)=C(/C)N(C=O)Cc1ccc(C)nc1N)N(C=O)Cc1ccc(C)nc1N | 0.012 | Cmax [1]: 1120 ng/mL; AUC [2]: 1590 ng·h/mL; clearance [3]: 32.5 mL/min/kg; MRT [4]: 12.7 h; Vd [5]: 19.3 L/kg; Activity (Mus musculus): Active
12 | Cc1ccc(CN(C=O)/C=C(/CCO)SS/C(=C\N(C=O)Cc2ccc(C)nc2N)CCO)c(N)n1 | 102 | –
13 | CC(=O)N(Cc1ccc(C)nc1N)/C(C)=C(/CCO)SS/C(CCO)=C(/C)N(Cc1ccc(C)nc1N)C(C)=O | 0.032 | –
14 | Cc1c(CCO)sc[n+]1Cc1cccnc1N | 0.11 | –
15 | C/C(=C(\CCOC(=O)c1ccccc1)SC(=O)c1ccccc1)N(C=O)Cc1ccc(C)nc1N | 0.028 | –
16 | Cc1c(CCO)sc[n+]1Cc1ccc(Cl)nc1N | 0.009 | –
17 | Cc1ccc(C[n+]2c(C)sc(CCO)c2C)c(N)n1 | 0.028 | –
